Data on one molecule can be found in patent US9393311B2, “Intravaginal ring comprising polyurethane composition for drug delivery” (DSM IP ASSETS B.V., priority 2010, dated 2016).

“Also recorded” adds a separate entry of the source.

The nature of this data set: UC781 drug stability in compounded polyurethane after extrusion and accelerated storage. Type of data set: physicochemical. To be noted: 4-5 week, 60° C., with and without additives. An excerpt: The drug stability in compounded lot #1100032 was also studied after extrusion and under accelerated storage conditions, with and without various antioxidants (Table 3).

Regarding `CC(C)=CCOc1cc(NC(=S)c2ccoc2C)ccc1Cl` [UC781], the “UC781 stability in compounded lot #1100032” value is on record as “Irganox is incompatible with UC781; also recorded: best stability with BHT, EDTA or without any additives”.
